Here are results for six compounds from ChEMBL document CHEMBL1201862, “PubChem BioAssay data set” (2004).

Assay [1] deals with HEK293. The assay is described as follows: Fluorescence-based counterscreen for potentiators or agonists of NPY-Y1: cell-based high-throughput dose response assay for inhibitors of cyclic nucleotide gated ion channel (CNGC) activity. In this assay, the parental HEK293 cell line transfected with a cyclic-nucleotide gated ion channel (CNGC)-based cAMP sensor is used to measure inhibition of isoproterenol-induced CNGC …. The following applies: Homo sapiens. The assay is classed as functional. Background: The purpose of a counterscreen is to sort out artefacts and off-target activity.

Assay [2] has as its target T1, Neuropeptide Y receptor type 2 (Homo sapiens, UniProt P49146).
T1 sequence (P49146 whole entry): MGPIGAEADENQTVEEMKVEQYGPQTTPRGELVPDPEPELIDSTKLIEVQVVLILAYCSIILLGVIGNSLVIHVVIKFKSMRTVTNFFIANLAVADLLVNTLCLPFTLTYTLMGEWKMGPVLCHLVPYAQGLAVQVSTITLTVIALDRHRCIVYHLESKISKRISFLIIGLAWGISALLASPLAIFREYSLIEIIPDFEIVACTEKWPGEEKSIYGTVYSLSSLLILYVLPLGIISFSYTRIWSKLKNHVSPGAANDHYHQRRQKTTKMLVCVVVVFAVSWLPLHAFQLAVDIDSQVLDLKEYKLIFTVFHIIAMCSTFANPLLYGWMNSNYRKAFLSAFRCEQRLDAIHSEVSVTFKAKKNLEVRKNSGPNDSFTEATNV
The assay is described as follows: Fluorescence-based counterscreen for agonists of NPY-Y1: cell-based high-throughput dose response assay for agonists of NPY-Y2. The assay is classed as functional.

For assay [3], the target named is T2, Neuropeptide Y receptor type 1 (Homo sapiens, UniProt P25929).
T2 sequence (P25929 whole entry): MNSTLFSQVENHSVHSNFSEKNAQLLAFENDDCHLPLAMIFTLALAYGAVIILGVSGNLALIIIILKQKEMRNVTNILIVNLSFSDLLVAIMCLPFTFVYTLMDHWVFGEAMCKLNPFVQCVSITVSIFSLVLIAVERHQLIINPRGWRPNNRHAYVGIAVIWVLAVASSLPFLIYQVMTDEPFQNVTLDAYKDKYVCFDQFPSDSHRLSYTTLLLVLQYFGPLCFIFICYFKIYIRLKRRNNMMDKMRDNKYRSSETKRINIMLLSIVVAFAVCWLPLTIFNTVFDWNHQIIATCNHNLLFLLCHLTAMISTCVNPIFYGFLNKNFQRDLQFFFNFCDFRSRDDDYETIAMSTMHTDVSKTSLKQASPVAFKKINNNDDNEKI
Description: Fluorescence-based dose response cell-based high-throughput screening assay for agonists of NPY-Y1. [Related pubchem assays: 1697 (Screening assay (NPY-Y1 agonists).), 1359 (Screening assay (NPY-Y2 potentiators or agonists).), 1304 (Screening assay (NPY-Y1 potentiators or agonists).), 1704 (Screening assay (CNGC inhibitors).), 1791 (Summary AID.)]. The assay is classed as functional.

The target in assay [4] is T3, Estrogen receptor (Homo sapiens, UniProt P03372).
T3 sequence (P03372 whole entry): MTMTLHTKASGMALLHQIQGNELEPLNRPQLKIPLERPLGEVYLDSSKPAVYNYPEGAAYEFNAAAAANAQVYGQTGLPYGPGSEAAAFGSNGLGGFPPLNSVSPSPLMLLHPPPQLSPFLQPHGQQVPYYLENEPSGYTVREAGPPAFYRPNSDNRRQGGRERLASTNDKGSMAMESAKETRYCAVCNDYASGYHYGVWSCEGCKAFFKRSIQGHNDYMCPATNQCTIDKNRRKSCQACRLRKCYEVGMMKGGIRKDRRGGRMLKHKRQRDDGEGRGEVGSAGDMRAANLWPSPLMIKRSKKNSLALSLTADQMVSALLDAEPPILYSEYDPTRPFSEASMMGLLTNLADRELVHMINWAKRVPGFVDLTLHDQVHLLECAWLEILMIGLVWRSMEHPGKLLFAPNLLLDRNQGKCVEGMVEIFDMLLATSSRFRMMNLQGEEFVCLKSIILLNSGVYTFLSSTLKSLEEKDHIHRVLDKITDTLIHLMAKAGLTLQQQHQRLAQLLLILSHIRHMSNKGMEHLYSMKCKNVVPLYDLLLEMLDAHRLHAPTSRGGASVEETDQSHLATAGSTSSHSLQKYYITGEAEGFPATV
Description: ERα coactivator recruitment enhancers – biochemical, TR-FRET, ERα LBD, dose response (AID 737). In general terms: In TR-FRET formats the signal depends on donor and acceptor labels being close together.

The target in assay [5] is DNA topoisomerase (Yersinia pestis, UniProt A0A2S9PM60). Description: Yersinia topoisomerase I cleavage product accumulation – biochemical, cherry-pick, dose response (AID 588525).
Sequence of DNA topoisomerase (A0A2S9PM60 whole entry): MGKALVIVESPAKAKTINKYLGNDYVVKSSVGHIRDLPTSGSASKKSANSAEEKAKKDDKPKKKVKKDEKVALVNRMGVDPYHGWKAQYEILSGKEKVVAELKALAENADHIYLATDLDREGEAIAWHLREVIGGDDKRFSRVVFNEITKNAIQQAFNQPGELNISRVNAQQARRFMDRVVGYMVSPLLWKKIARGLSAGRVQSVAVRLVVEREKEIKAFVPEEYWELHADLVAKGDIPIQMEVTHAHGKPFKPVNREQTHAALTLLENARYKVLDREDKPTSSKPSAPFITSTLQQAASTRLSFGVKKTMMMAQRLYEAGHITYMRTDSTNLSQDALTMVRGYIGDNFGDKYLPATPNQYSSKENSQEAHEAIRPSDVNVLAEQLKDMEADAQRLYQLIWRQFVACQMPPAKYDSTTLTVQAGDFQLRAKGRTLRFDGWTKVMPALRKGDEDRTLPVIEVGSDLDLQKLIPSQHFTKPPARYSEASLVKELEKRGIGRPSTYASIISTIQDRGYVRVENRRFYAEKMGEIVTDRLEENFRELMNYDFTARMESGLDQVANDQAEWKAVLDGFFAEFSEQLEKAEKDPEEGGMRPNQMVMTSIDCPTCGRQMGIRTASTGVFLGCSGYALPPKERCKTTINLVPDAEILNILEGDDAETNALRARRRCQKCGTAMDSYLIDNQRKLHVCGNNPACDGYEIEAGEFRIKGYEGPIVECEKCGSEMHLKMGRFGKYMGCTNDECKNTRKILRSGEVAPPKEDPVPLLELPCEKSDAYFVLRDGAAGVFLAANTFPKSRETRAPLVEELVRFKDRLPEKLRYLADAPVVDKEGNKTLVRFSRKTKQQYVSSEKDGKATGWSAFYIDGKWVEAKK
Assay [6] has as its target Mothers against decapentaplegic homolog 3 (Homo sapiens, UniProt P84022). Description: blockers of Smad3 complex formation in lysate – cell lysate, secondary confirmation, chemiluminescent ELISA, HEK293 lysate, dose response (AID 1058). The assay is classed as functional. Background: ELISA stands for enzyme-linked immunosorbent assay.
Assay [7] concerns the target Cyclin-dependent kinase 5/CDK5 activator 1 (Homo sapiens, UniProt Q00535). The assay is described as follows: blockade of human CDK5 activity – biochemical, cherry-picked samples, set 2, dose response (AID 504545).
Assay [8] addresses Heat shock protein HSP 90-alpha (Homo sapiens, UniProt P07900). The assay is classed as functional, organism-based.
Assay [9] in a line: cells. The assay is classed as functional.
Assay [10] in a line: M. tuberculosis H37Rv growth inhibitors, H37Rv strain (AID 1626). In kind it is functional.
Assay [11] in a line: antiviral protection against BTV-induced cell death – arbovirus, BSR cells, confirmation (AID 1250).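 Also: protection from viral cytopathic effect measured as cell viability by ATP luminescence.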 The assay is classed as functional.

Calls of active or inactive are those of the source.

Sequence of Mothers against decapentaplegic homolog 3 (P84022 whole entry): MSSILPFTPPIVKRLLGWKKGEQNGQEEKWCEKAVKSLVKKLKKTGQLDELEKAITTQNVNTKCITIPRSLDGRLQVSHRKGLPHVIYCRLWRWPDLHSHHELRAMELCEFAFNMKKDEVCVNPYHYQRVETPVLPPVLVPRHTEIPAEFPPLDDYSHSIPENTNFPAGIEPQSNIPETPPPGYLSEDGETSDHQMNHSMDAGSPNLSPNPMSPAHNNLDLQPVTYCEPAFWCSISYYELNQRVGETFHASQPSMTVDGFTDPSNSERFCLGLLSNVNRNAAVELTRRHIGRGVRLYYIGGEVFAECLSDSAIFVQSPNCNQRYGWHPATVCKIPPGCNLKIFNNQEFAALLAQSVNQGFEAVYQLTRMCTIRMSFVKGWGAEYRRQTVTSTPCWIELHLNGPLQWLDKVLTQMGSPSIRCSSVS
Sequence of Cyclin-dependent kinase 5/CDK5 activator 1 (Q00535 whole entry): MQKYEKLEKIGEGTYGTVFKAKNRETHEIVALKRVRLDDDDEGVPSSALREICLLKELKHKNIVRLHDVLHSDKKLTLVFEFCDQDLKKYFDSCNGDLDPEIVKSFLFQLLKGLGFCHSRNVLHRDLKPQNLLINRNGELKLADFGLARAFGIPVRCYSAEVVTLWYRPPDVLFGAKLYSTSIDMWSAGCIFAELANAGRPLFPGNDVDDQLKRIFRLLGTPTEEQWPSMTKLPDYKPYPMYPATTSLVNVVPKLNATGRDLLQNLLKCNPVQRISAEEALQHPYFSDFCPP
Sequence of Cyclin-dependent kinase 5/CDK5 activator 1 (Q15078 whole entry, further chain): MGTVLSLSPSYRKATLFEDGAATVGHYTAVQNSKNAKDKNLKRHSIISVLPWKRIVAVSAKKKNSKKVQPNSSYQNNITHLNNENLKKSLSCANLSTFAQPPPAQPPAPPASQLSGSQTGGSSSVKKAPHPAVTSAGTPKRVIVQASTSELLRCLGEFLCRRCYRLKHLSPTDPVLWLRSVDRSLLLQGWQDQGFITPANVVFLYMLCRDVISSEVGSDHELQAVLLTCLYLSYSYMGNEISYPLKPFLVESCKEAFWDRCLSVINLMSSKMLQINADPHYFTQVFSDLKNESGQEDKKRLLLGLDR

What is called IC50 is the concentration needed to halve the response being measured. As usually defined, the EC50 is the midpoint of the concentration-response curve. Take `CSc1nc(-c2ccco2)nn1C(=O)c1ccccc1Cl`: the IC50 in assay [1] is > 35.4 µM (not active). The EC50 in assay [2] and in assay [3] was > 35.4 µM (not active) in each case.
Broadly, the AC50 is the concentration giving half of the maximal activity seen. Turning to `CCc1ccc(Nc2nc(N)nc(CSc3nnnn3-c3ccccc3)n2)cc1`, the EC50 in [4] is 4.76 µM (active). The AC50 in assay [5] is 6.16 µM (active).
With `COc1ccc(C(c2cc3c(cc2O)OCO3)N2CCCCC2)cc1OC` (stereo unspecified), the half-inhibitory concentration (IC50) in assay [6] is > 40 µM (not active).
Regarding `O=[N+]([O-])c1ccc2c(c1)-c1ccccc1C2=NO`, the AC50 in assay [7] is 8.4 µM (active); in [8], 3.93 µM (active).
As to `O=C(Nc1nc2ccccc2[nH]1)c1cccc([N+](=O)[O-])c1`, the results for the IC50 in [9] and in assay [10] were 4.91 µM (active) and > 100 µM (active), respectively.
Take `CC(=O)/C(=N/Nc1cccc(Cl)c1)Sc1nnc(C(O)c2ccccc2)n1-c1ccccc1` (stereo unspecified): the IC50 in assay [11] was 37.7 µM (active).
